According to patent US9309224B2 (Deciphera Pharmaceuticals, LLC, priority 2013, dated 2016):

Key:
[1] = target: T1, unphosphorylated c-FMS kinase (uFMS, Seq. ID no. 1) (Homo sapiens, UniProt P07333); assay: uFMS kinase assay (pyruvate kinase/lactate dehydrogenase coupled); format: biochemical; details: ATP 500 μM
T1 construct: purchased Millipore
T1 sequence (P07333 538-972): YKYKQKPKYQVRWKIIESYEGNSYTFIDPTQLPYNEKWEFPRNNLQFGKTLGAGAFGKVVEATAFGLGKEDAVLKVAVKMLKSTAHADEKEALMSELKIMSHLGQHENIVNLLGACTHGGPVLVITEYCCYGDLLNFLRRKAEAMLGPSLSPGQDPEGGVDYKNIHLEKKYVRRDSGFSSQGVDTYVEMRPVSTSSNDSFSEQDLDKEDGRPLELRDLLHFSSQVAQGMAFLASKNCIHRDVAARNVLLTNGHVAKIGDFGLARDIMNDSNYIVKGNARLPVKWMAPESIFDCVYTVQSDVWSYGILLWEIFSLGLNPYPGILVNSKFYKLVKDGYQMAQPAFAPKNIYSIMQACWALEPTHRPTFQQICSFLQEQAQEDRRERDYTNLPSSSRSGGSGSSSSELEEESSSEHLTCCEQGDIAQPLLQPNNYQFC
Procedure: In this assay, the oxidation of NADH (thus the decrease at A340 nm) was continuously monitored spectrophometrically. The reaction mixture (100 μL) contained FMS (purchased from Millipore) (10 nM), polyE4Y (1 mg/mL), MgCl2 (10 mM), pyruvate kinase (4 units), lactate dehydrogenase (0.7 units), phosphoenol pyruvate (1 mM), NADH (0.28 mM) and ATP (500 μM) in 90 mM Tris buffer containing 0.2% octyl-glucoside and 1% DMSO, pH 7.5. The inhibition reaction was started by mixing serial diluted test compound with the above reaction mixture. The absorption at 340 nm was monitored continuously for 4 hours at 30° C. on Synergy 2 plate reader. The reaction rate was calculated using the 3 to 4 h time frame. Percent inhibition was obtained by comparison of reaction rate with that of a control (i.e. in the absence of test compound). IC50 values were calculated from a series of percent inhibition values determined at a range of inhibitor concentrations using software routines as implemented in the GraphPad Prism software package.

[2] = target: T2, unphosphorylated c-KIT kinase (uKIT, Seq. ID no. 2) (Homo sapiens, UniProt P10721); assay: uKit kinase assay (pyruvate kinase/lactate dehydrogenase coupled); format: biochemical; details: ATP 2000 μM
T2 construct: uKit with N-terminal GST fusion used for
T2 sequence (P10721 with tags, fused parts or gaps): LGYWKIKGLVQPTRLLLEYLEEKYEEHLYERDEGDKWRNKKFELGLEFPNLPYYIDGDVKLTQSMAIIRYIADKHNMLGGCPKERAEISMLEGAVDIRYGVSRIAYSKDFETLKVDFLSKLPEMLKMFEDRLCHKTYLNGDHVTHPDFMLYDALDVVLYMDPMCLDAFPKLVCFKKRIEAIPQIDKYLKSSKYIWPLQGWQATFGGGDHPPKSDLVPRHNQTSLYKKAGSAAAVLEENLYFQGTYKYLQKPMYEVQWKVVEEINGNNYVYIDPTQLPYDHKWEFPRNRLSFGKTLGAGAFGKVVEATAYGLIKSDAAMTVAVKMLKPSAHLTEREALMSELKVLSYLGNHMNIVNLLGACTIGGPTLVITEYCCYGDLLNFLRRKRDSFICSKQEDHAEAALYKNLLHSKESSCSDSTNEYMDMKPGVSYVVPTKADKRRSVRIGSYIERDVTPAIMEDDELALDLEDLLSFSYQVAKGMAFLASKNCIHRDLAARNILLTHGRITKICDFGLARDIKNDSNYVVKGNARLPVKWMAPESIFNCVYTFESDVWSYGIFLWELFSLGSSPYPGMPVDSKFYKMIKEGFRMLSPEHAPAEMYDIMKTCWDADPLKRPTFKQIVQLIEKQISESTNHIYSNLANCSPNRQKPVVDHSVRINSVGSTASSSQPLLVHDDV
Procedure: In this assay, the oxidation of NADH (thus the decrease at A340 nm) was continuously monitored spectrophometrically. […] The inhibition reaction was started by mixing serial diluted test compound with the above reaction mixture. The absorption at 340 nm was monitored continuously for 4 hours at 30° C. on Synergy 2 plate reader (BioTech).

[3] = target: T3, unphosphorylated PDGFRβ kinase (uPDGFRβ, Seq. ID No. 3) (Homo sapiens, UniProt P09619); assay: Unphosphorylated PDGFRβ kinase assay (pyruvate kinase/lactate dehydrogenase coupled); format: biochemical; details: ATP 500 μM
T3 construct: purchased DeCode
T3 sequence (P09619 557-1105): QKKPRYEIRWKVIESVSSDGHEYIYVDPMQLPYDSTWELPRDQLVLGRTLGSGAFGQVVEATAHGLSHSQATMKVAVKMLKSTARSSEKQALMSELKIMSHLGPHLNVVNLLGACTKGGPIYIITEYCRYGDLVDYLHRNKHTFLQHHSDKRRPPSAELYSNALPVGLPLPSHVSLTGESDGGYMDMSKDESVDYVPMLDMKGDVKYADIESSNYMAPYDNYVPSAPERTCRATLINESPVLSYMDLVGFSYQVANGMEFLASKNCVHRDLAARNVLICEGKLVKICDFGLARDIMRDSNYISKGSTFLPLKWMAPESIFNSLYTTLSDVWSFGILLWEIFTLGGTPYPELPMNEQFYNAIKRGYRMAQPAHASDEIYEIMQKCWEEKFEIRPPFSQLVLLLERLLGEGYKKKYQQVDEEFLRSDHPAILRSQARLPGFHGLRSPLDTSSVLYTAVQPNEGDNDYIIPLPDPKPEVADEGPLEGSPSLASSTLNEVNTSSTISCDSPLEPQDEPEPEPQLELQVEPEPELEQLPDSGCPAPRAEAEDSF
Text: Unphosyhorylated PDGFRβ (uPDGFRβkinase (Seq. ID No. 3) assay

[4] = test system: M-NFS-60 cells; assay: M-NFS-60 cell proliferation assay; format: cell-based; details: 67 h incubation, resazurin
Procedure: M-NFS-60 Cell Proliferation Assay A serial dilution of test compound was dispensed into a 384-well black clear bottom plate (Corning, Corning, N.Y.). Two thousand five hundred cells were added per well in 50 μL complete growth medium. […] IC50 values were calculated from a series of percent inhibition values determined at a range of inhibitor concentrations using software routines as implemented in the GraphPad Prism software package.

[5] = test system: osteoclast precursors; assay: Osteoclast tartrate-resistant acid phosphatase assay; format: cell-based; details: Osteoclast; 7-14 days, RANKL and M-CSF
[6] = target: T4, phospho-FMS in THP-1 cells (Homo sapiens, UniProt P07333); assay: Phospho-FMS ELISA assay in THP-1 cells; format: cell-based; details: 4 hours compound, M-CSF stimulated; read-out: pFMS inhibition in THP-1 cells
T4 construct: endogenous in cells; host or cells: THP-1 (ATCC TIB-202)
T4 sequence (P07333 20-972): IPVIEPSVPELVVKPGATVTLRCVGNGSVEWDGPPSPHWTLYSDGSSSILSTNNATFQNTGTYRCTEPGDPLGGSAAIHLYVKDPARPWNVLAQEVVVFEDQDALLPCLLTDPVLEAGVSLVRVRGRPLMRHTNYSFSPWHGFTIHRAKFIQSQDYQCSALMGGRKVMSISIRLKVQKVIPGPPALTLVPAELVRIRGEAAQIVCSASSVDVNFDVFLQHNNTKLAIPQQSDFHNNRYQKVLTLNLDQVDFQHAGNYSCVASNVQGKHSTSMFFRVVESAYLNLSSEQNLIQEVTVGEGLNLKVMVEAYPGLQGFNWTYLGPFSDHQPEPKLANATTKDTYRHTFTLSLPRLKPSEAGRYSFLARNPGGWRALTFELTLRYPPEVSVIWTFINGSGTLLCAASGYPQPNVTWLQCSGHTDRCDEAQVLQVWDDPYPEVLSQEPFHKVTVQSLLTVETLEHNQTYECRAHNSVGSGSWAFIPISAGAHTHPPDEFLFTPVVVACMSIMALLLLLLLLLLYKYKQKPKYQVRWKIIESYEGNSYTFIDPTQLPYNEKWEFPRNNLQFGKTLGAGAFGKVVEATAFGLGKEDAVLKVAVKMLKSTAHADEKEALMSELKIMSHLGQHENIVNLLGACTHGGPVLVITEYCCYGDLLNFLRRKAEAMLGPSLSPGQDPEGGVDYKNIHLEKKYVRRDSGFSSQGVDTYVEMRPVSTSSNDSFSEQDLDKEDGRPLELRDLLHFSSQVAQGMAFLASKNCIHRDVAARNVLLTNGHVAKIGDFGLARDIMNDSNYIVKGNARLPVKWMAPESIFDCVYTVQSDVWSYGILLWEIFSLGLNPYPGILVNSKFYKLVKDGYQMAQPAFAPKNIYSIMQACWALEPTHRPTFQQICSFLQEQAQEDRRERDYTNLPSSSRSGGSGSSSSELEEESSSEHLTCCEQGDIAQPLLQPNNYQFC
Procedure: In a separate 96 well black clear bottom plate, one hundred and fifty thousand THP-1 cells were added per well in 100 μL in assay medium. Fifty microliters of diluted compound was then added to the cells. […] Lysates were prepared and used to perform the phospho-FMS ELISA as described by the manufacturer (catalog #DYC3268, R & D Systems, Minneapolis, Minn.). GraphPad Prism was used to calculate IC50 values obtained from data generated from the ELISA assay.

[7] = test system: c-FMS; assay: cFOS mRNA production in a c-FMS mouse spleen pharmacodynamic model; format: in vivo; details: out to 8 h post 30 mg/kg single oral dose, read-out: inhibition of cFOS mRNA levels
Procedure: Analysis of cFOS mRNA Production in a c-FMS Mouse Spleen Pharmacodynamic Model To examine the in vivo modulation of FMS activity by compounds of formula I, spleen samples from female DBA/1 mice were collected and analyzed for M-CSF stimulated production of cFOS mRNA. Briefly, six to seven week old female Taconic DBA/1BO J Bom Tac mice were treated with a single oral dose (by gavage) of either vehicle or compound. Plasma and spleen samples are collected from four mice at each timepoint 2, 4, 6, 8, 12, 18, and 24 hours after dosing. Fifteen minutes prior to euthanasia, all mice were injected IV with 1 μg (100 μL fixed volume) of M-CSF. M-CSF, Recombinant Mouse Macrophage Colony Stimulating Factor (36.4 kDa homodimer, ≧98% purity) was obtained from Gibco. All procedures carried out in this experiment were conducted in compliance with all the laws, regulations and guidelines of the National Institutes of Health (NIH). cFOS mRNA levels in spleen extracts were determined using a quantitative reverse transcriptase PCR kit from Life Technologies. Plasma levels of FMS inhibitors were determined by mass spectrometer analysis. The degree of FMS inhibition was correlative to the amount of decrease observed in cFOS mRNA levels in the spleen samples of treated animals compared to vehicle.

| Compound | IC50 [1] | IC50 [2] | IC50 [3] | IC50 [4] | IC50 [5] | IC50 [6] | inhibition in vivo at 30 mg/kg [7] |
| --- | --- | --- | --- | --- | --- | --- | --- |
| CC(=O)Nc1cc(Oc2ccc(NC(=O)NC(=O)C3CCCC3)nc2C)ccn1 [Example 8, N-((5-((2-acetamidopyridin-4-yl)oxy)-6-methylpyridin-2-yl)carbamoyl)cyclopentanecarboxamide] | < 10 nM | 100 to 1000 nM | 10 to 100 nM | < 10 nM | < 10 nM | < 10 nM | ≥ 50% |
| CC(C)(C)C(=O)NC(=O)Nc1ccc(Oc2ccnc(NC(=O)N3CCNCC3)c2)cn1 [Example 83, N-(4-((6-(3-pivaloylureido)pyridin-3-yl)oxy)pyridin-2-yl)piperazine-1-carboxamide] | < 10 nM | > 1000 nM | 100 to 1000 nM | 10 to 100 nM | < 10 nM | < 10 nM | ≥ 50% |
| CN1CCC(C(=O)Nc2cc(Oc3ccc(NC(=O)NC(=O)C(C)(C)C)nc3)ccn2)CC1 [Example 21, 1-methyl-N-(4-((6-(3-pivaloylureido)pyridin-3-yl)oxy)pyridin-2-yl)piperidine-4-carboxamide] | < 10 nM | > 1000 nM | > 1000 nM | 10 to 100 nM | < 10 nM | 10 to 100 nM | ≥ 50% |
| CN(C)C(=O)Nc1cc(Oc2ccc(NC(=O)NC(=O)C(C)(C)C)nc2)ccn1 [Example 23, N-((5-((2-(3,3-dimethylureido)pyridin-4-yl)oxy)pyridin-2-yl)carbamoyl)pivalamide] | < 10 nM | > 1000 nM | 100 to 1000 nM | < 10 nM | < 10 nM | < 10 nM | ≥ 50% |
| COC(C)(C)C(=O)NC(=O)Nc1ccc(Oc2ccnc(NC(C)=O)c2)cn1 [Example 26, N-((5-((2-acetamidopyridin-4-yl)oxy)pyridin-2-yl)carbamoyl)-2-methoxy-2-methylpropanamide] | < 10 nM | > 1000 nM | 100 to 1000 nM | 10 to 100 nM | < 10 nM | < 10 nM | ≥ 50% |
| CNC(=O)c1cc(Oc2ccc(NC(=O)NC(=O)C(C)(C)C)nc2)ccn1 [Example 34, N-methyl-4-((6-(3-pivaloylureido)pyridin-3-yl)oxy)picolinamide] | < 10 nM | > 1000 nM | > 1000 nM | 10 to 100 nM | 10 to 100 nM | 10 to 100 nM | ≥ 50% |
| CC(=O)Nc1cc(Oc2ccc(NC(=O)NC(=O)C(C)(C)C)nc2)ccn1 [Example 3, N-((5-((2-acetamidopyridin-4-yl)oxy)pyridin-2-yl)carbamoyl)pivalamide] | < 10 nM | > 1000 nM | > 1000 nM | 10 to 100 nM | < 10 nM | < 10 nM | ≥ 50% |
| CN(C)C1CCN(C(=O)Nc2cc(Oc3ccc(NC(=O)NC(=O)C(C)(C)C)nc3)ccn2)CC1 [Example 76, 4-(dimethylamino)-N-(4-((6-(3-pivaloylureido)pyridin-3-yl)oxy)pyridin-2-yl)piperidine-1-carboxamide] | < 10 nM | > 1000 nM | 100 to 1000 nM | 10 to 100 nM | < 10 nM | < 10 nM | – |
| Cc1nc(NC(=O)NC(=O)C(C)(C)C)ccc1Oc1ccnc(NC(=O)C2CC2)c1 [Example 11, N-(4-((2-methyl-6-(3-pivaloylureido)pyridin-3-yl)oxy)pyridin-2-yl)cyclopropanecarboxamide] | < 10 nM | > 1000 nM | 10 to 100 nM | < 10 nM | < 10 nM | < 10 nM | ≥ 50% |
| CC(=O)Nc1cc(Oc2ccc(NC(=O)NC(=O)C3CCCC3)nc2)ccn1 [Example 2, N-((5-((2-acetamidopyridin-4-yl)oxy)pyridin-2-yl)carbamoyl)cyclopentanecarboxamide] | < 10 nM | 100 to 1000 nM | < 10 nM | 10 to 100 nM | < 10 nM | 10 to 100 nM | – |
| CNC(=O)Nc1cc(Oc2ccc(NC(=O)NC(=O)C(C)(C)C)nc2)ccn1 [Example 79, N-((5-((2-(3-methylureido)pyridin-4-yl)oxy)pyridin-2-yl)carbamoyl)pivalamide] | < 10 nM | > 1000 nM | 100 to 1000 nM | 100 to 1000 nM | 10 to 100 nM | 10 to 100 nM | – |
| Cc1nc(NC(=O)NC(=O)C(C)(C)C)ccc1Oc1ccnc(NC(=O)N(C)C)c1 [Example 62, N-((5-((2-(3,3-dimethylureido)pyridin-4-yl)oxy)-6-methylpyridin-2-yl)carbamoyl)pivalamide] | < 10 nM | > 1000 nM | > 1000 nM | < 10 nM | 10 to 100 nM | < 10 nM | ≥ 50% |
| CC(=O)Nc1cc(Oc2ccc(NC(=O)NC(=O)C3(C(F)(F)F)CCC3)nc2)ccn1 [Example 25, N-((5-((2-acetamidopyridin-4-yl)oxy)pyridin-2-yl)carbamoyl)-1-(trifluoromethyl)cyclobutanecarboxamide] | 10 to 100 nM | > 1000 nM | 100 to 1000 nM | 10 to 100 nM | < 10 nM | < 10 nM | – |
| CN1CCC(C(=O)Nc2cc(Oc3ccc(NC(=O)NC(=O)C4(C)CC4)nc3)ccn2)CC1 [Example 33, 1-methyl-N-(4-((6-(3-(1-methylcyclopropanecarbonyl)ureido)pyridin-3-yl)oxy)pyridin-2-yl)piperidine-4-carboxamide] | 10 to 100 nM | > 1000 nM | 100 to 1000 nM | 100 to 1000 nM | 10 to 100 nM | 10 to 100 nM | – |
| CCN1CCN(C(=O)Nc2cc(Oc3ccc(NC(=O)NC(=O)C(C)(C)C)nc3)ccn2)CC1 [Example 80, 4-ethyl-N-(4-((6-(3-pivaloylureido)pyridin-3-yl)oxy)pyridin-2-yl)piperazine-1-carboxamide] | < 10 nM | > 1000 nM | 100 to 1000 nM | 10 to 100 nM | < 10 nM | < 10 nM | – |
